Data reported in patent US20190142775A1, “TREATING ACTIVATED DERMAL CONDITIONS WITH AGENTS THAT TARGET ENERGY METABOLISM” (Sciaderm, Inc., priority 2016, published 2019).

Legend:
psoriatic plaques = experiment: Open label case report: topical 3-BP formulation applied to psoriatic plaques of one subject; assay type: in vivo, human
Description: The present Example describes use of an exemplary topical formulation of 3-BP in the treatment of psoriasis. The goal of this study is to reduce the hyper-proliferation of skin cells and deactivate the inflammatory response associated with the condition. Therefore, treatment was planned in a sequential dose escalating fashion. Dose escalation is accomplished by a step wise increase in formulation strength and/or application volume and frequency. Daily or twice daily doses were administered, with an initial strength ranging from about 0.001% to about 0.05% and administered doses were increased incrementally to a final strength ranging from about 5% to about 25% of the total weight of the formulation. As a first objective, the maximum tolerated dose was established, which was indicated by the observation of local irritation in the area of application. In some cases, once local irritation was observed, dosing was then reduced by approximately factor of four and continued or readjusted as appropriate to assess efficacy.
An exemplary topical formulation of 3-BP was prepared as described below: […]
An exemplary 3-Bromo-Pyruvic Acid (“BPA”) formulation was compounded as a lotion of low viscosity, filled dropper bottles (e.g., a 3 mL dropper bottle).
Compounding: 3-Bromo-Pyruvic Acid, BPA, CAS#1113-59-3, was obtained from AK Scientific, Inc., Union City, Calif. and stored at frozen conditions. Given the known instability of BPA at higher pH (e.g., physiologic pH) the final formulation consisted of 75% acetic acid (5% w/w) and 25% compounding base with a pH of approximately 3.0. During formulation, all ingredients were chilled to +5° C., and kept on ice for the entire procedure.
Stock solution A was prepared by dissolving the appropriate amount of solid bromopyruvic acid, BPA, in 5% acetic acid at a concentration of 2% to 10% (w/w); depending on the desired final concentration, intermediate dilutions of for example 1:5, using 5% acetic acid, may have been prepared as well.
Stock solution B consisted of a commercially available compounding base, Vanicream™, NDC 45334-300-16, that was diluted 1:1 in 5% acetic acid. The final formulation was comprised of blending BPA solution (Stock A) with compounding base (Stock B) at a ratio of 1:1. The resulting formulation is of low viscosity and filled in 3 ml ophthalmic dropper bottles.
Final concentration of BPA was between 0.15 mM (0.0025% w/w) and 300 mM (5.0% w/w). To preserve stability of the active ingredient, the formulation was stored frozen at −18° C. until use. Once treatment application commenced, bottles were kept at refrigerated conditions (+5° C.) for up to 1 week and then replaced with freshly made product.
This research was conducted as an out-patient, open label, intra-individually controlled repeated measurement experiment involving up to 10 subjects. To minimize bias, subjects were treated at selected target plaques. Neighboring plaques serve as an intra-individual control.
An exemplary 3-BP formulation was self-administered as one or two drops per application, depending on size of the treatment area. Care was taken for drops to fall freely from the dropper tip to ensure a consistent dose volume of ≈25-50 μl/drop. Most treatment applications were done in the morning and photographs were taken mostly in the evening to allow possible moisturizing effects of the compounding base to wear off.
Within each treatment area, the severity is estimated by three clinical signs: erythema (redness), induration (thickness) and desquamation (scaling). Efficacy is assessed using the Investigators Global Assessment scale and the Psoriasis Area Severity Index (PASI), which are summarized in Tables 1 and 2 below. In addition, target lesions are photographed and adjudicated by a blinded independent investigator. These efficacy variables were assessed at every visit.
Safety is assessed by collection of research events and review of concomitant treatments. Clinical adverse event reporting is conducted at each visit. […]

[1] = at higher pH (e.g., physiologic pH); cited from earlier work
[2] = Plaque #3, right forearm, one drop per day, 1.75 mM, one week
[3] = Plaque #4, left forearm, 0.15 mM, QD, 2.5 weeks
[4] = Plaque #5, left elbow, 1 drop per day, 0.15 mM, 10 days

In the case of O=C(O)C(=O)CBr [3-BP, 3-bromopyruvate], the “Adverse effects at a strength of 0.5 mM” value (psoriatic plaques; 0.5 mM, summary of case report) is reported as “without any observable adverse effects”, the “Efficacy at a strength of 0.5 mM” value (psoriatic plaques; 0.5 mM, summary of case report) is reported as “highly effective” and the “Plaque status 20 weeks after last treatment application” value (psoriatic plaques; Plaque 1, left forearm, 26 weeks after baseline (FIG. 1)) is reported as “complete remission”. The Local adverse effects (psoriatic plaques; Plaque 1, left forearm, BID, 0.1% to 5.0% (6-300 mM), after approximately one week of treatment) was “local irritation, oozing, and crusting”, the “Treatment effect on psoriatic plaque” value (psoriatic plaques; Plaque 1, left forearm, one drop twice per day, strength escalated 0.1% to 5.0% (6-300 mM) in first week, later reduced to QD and 0.1%, stopped after 6 weeks) was “completely resolved” and the “Plaque status 20 weeks after last treatment application” value (psoriatic plaques; Plaque #2, right forearm) was “complete remission”. The “Duration of complete remission after last treatment application” value (psoriatic plaques; Plaque #2, right forearm, as of the date of the last visit) was “approximately 8 months”, the “Tolerability / local adverse effects” value (psoriatic plaques; Plaque #2, right forearm, once daily 0.1% (6 mM) one week, then 0.03% (1.75 mM) two weeks) was “well tolerated and only some mild local irritation” and the “Treatment effect on psoriatic plaque” value (psoriatic plaques; Plaque #2, right forearm, once daily 0.1% (6 mM) one week, then 0.03% (1.75 mM) two weeks, Day 21) was “mostly resolved”. The Tolerability (psoriatic plaques; Plaque #3, right forearm, 0.5 mM, once per day) was “well tolerated”, the “Treatment effect on severity of psoriasis plaques” value (psoriatic plaques; Plaque #3, right forearm, 1 mM QD 10 days, then 0.5 mM once per day) was “Significant improvement” and the Local adverse effects (psoriatic plaques; Plaque #3, right forearm, 1 mM, QD, 10 days) was “minor local irritation”. The “Plaque status after treatment was stopped” value (psoriatic plaques; Plaque #3, right forearm, after 1.75 mM QD and 6 mM every other day) was “psoriatic skin afflictions remained”, the Local adverse effects (psoriatic plaques; [2]) was “itching and pin-head sized crusting” and the “Treatment effect on psoriatic plaque” value (psoriatic plaques; [2]) was “improved”. For the same compound, the Local adverse effects (psoriatic plaques; Plaque #3, right forearm, resumed at 6 mM every other day after one week pause) was “local irritation became more pronounced”, the Tolerability (psoriatic plaques; [3]) was “well tolerated” and the “Treatment effect on psoriatic plaque” value (psoriatic plaques; [3]) was “only marginal efficacy”. The “Time plaque remained resolved after the last application” value (psoriatic plaques; Plaque #4, left forearm, 0.5 mM) was “more than 6 weeks”, the Local adverse effects (psoriatic plaques; Plaque #4, left forearm, 0.5 mM, Day 18 to 43) was “did not induce any local irritancy or other unwanted effects” and the “Treatment effect on psoriatic plaque” value (psoriatic plaques; Plaque #4, left forearm, 0.5 mM, Day 18 to 43, continued treatment) was “completely resolved”. For the same compound, the “Treatment effect on psoriatic plaque” value (psoriatic plaques; Plaque #5, left elbow, 0.5 mM, 1 drop QD Days 10-19, 2 drops QD from Day 20, Day 47 (FIG. 4), versus untreated right elbow) was “completely clear of psoriasis”, the Tolerability (psoriatic plaques; [4]) was “well tolerated” and the “Treatment effect on psoriatic plaque” value (psoriatic plaques; [4]) was “only marginal improvement”. For the same compound, the “Response of all treated plaques” value (psoriatic plaques; five different or recurring psoriasis plaques, over a period of three to six weeks) was “responded favorably or completely resolved”, the “Concentration inducing local irritation / at which adverse events started to emerge” value (psoriatic plaques; local irritation, including oozing and crusting, summary of case report) was at least 1000 µM and the “Outcome of local adverse effects after cessation of treatment” value (psoriatic plaques; within a few weeks after treatment was stopped) was “resolved without sequelae”. For the same compound, the “Stability of BPA” value [1] was “instability”.
